Source: patent publication US20240252463A1, “METHODS OF TREATING FIBROTIC PATHOLOGIES” (Mayo Foundation for Medical Education and Research, priority 2018, published 2024)

Legend:
[1] = system: CTGF, COL1A1, ACTA2, FN1; experiment: qPCR of profibrotic and matrix remodeling gene expression in IPF patient-derived fibroblasts; type: cell-based, human; settings: 2 ng/mL TGFβ and 10 μM DHX, 24 hours
Procedure: FIGS. 3A-3F DHX reverses fibroblast matrix deposition, contraction and stiffening. 3a. […] Genes which encode Connective tissue growth factor (CTGF), Collagen I (COL1A1), αSMA (ACTA2), and Fibronectin (FN1) are reduced by 24 hour treatment with DHX (10 μM), +/−SCH 39166 (3 μM). N=3 (****p<0.0001, ***p<0.001, *p<0.05 vs. 0.1% DMSO vehicle control) 3b. DHX reverses TGFβ-induced αSMA+ stress fiber formation. IMR-90 cells pre-stimulated with 2 ng/mL TGFβ for 48 hours and then treated with DHX (10 μM)+2 ng/mL TGFβ for an additional 24 hours prior to fixation. Cells which are positive for αSMA were quantified by a blinded investigator and noted in the bottom right corner, a minimum of 300 cells in each experiment were quantified. N=3. 3c. DHX reverses TGFβ-induced extracellular matrix accumulation. […] Cell derived matrix is measured using antibodies for Collagen I and Fibronectin. […] DHX attenuates IPF patient-derived fibroblast contractility measured by traction force microscopy. […] RMS tractions were determined in two independent experiments; box and whisker plots show min to max, quartile, and mean from one representative experiment (****p<0.0001, *p<0.05 vs. 0.1% DMSO vehicle control). […] The matrices were decellularized and passage 3 NHLFs were plated onto the matrices; after 24 hours RNA was collected and expression of profibrotic genes was analyzed. […]

[2] = system: TAZ4SA; experiment: Gene expression and ECM deposition in NIH-3T3 cells expressing constitutively active mutant TAZ (TAZ4SA); type: cell-based, mouse; settings: doxycycline-induced TAZ4SA NIH-3T3
Procedure: FIGS. 8A-8B DHX inhibition of pro-fibrotic gene expression and matrix deposition requires inhibition of YAP/TAZ. […] TAZ4SA expression was induced with 100 ng/mL doxycycline for 72 hours prior to treatment with 10 μM or the indicated concentration of dihydrexidine. For gene expression experiments efficacy of DHX in NIH-3T3 cells was validated with by DHX (10 μM) effect on TGFβ (24 hour, 2 ng/mL) induced gene expression. N=2 for all.
Cell culture: Cells were all maintained in EMEM (ATCC) containing 10% FBS, unless otherwise noted. IMR-90 embryonic lung fibroblasts and NIH-3T3 mouse fibroblasts were purchased from ATCC. Doxycycline-inducible Tet-On NIH3T3 expressing TAZ4SA or control empty vector were described previously. Normal Human Alveolar Epithelial Cells (NHAEpCs), Normal Human Microvascular Endothelial Cells (NHMVECs), Normal Human Lung Fibroblasts (NHLFs), and Human Dermal Fibroblasts (HDFs) were purchased from Lonza and were cultured in the proprietary media per Lonza's recommendation. Human Adult Cardiac Fibroblasts (HACFs) and Hepatic Stellate Cells (HSCs) were purchased from ScienCell and were cultured in the proprietary media per ScienCell's recommendation. Hepatocytes were purchased from Samsara and were cultured in the proprietary media per Samsara's recommendation. […]

In the case of Oc1cc2c(cc1O)[C@H]1c3ccccc3CN[C@@H]1CC2 (racemic) [Dihydrexidine, dihydrexidine], the “expression of matrix crosslinking, protease inhibitor and matrix degradation genes” value [1] was “reversed the effects of TGFβ” and the “profibrotic gene expression and extracellular matrix accumulation in TAZ4SA cells” value [2] was “had no effect on profibrotic gene expression or extracellular matrix accumulation”.
